The assay addresses human GSK3β (Homo sapiens, UniProt P49841). Description: Screening for GSK3 inhibitory activity using a cell-free assay. The class given is biochemical. Conditions: read-out: IC50 with respect to GSK3. In a few lines:
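Radiometric cell-free assay with recombinant human GSK3β phosphorylating a biotinylated peptide substrate for 3 h. Reactions were stopped with 50 μM ATP/20 mM EDTA and captured on streptavidin plates. Incorporated radiolabel was counted by scintillation and plotted against compound concentration.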
human GSK3β, sequence (P49841 whole entry): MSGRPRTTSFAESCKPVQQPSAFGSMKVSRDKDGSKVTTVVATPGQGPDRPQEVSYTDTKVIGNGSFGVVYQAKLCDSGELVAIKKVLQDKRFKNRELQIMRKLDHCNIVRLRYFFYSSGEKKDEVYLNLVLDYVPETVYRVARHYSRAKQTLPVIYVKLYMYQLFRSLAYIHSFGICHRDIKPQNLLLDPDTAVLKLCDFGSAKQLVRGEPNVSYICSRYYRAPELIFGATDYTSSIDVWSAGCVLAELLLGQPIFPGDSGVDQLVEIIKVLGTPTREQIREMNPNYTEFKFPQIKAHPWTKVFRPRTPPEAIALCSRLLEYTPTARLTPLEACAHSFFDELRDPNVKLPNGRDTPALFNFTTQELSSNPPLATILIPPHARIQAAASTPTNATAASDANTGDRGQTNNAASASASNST
Turning to `CCOC(=O)c1cnc(NCCNc2ccc([N+](=O)[O-])cn2)nc1-c1cc(Cl)cc(Cl)c1` [ethyl 4-(3,5-dichlorophenyl)-2-({2-[(5-nitro(2-pyridyl))amino]ethyl}amino)-pyrimidine-5-carboxylate], the IC50 is no more than 10 µM.

With `CCOC(=O)c1cnc(NCCNc2ccc([N+](=O)[O-])cn2)nc1-c1cccc([N+](=O)[O-])c1` [ethyl 2-({2-[(5-nitro(2-pyridyl))amino]ethyl}amino)-4-(3-nitrophenyl)pyrimidine-5-carboxylate], the IC50 is no more than 10 µM. As for `CCOC(=O)c1cnc(NCCNc2ccc([N+](=O)[O-])c(N)n2)nc1-c1ccc(N2CCOCC2)cc1` [ethyl 2-({2-[(6-amino-5-nitro(2-pyridyl))amino]-ethyl}amino)-4-(4-morpholin-4-ylphenyl)pyrimidine-5-carboxylate], the figure is no more than 1 µM; as for `COc1ccc(CNc2nccc(-c3ccc(C(N)=O)cc3)n2)cc1OC` [4-(2-{[(3,4-dimethoxyphenyl)methyl]amino}-pyrimidin-4-yl)benzamide], no more than 10 µM; as for `CCOC(=O)c1cnc(NCCc2ccccn2)nc1-c1ccc(C#N)cc1` [ethyl 4-(4-cyanophenyl)-2-[(2-(2-pyridyl)ethyl)amino]-pyrimidine-5-carboxylate], no more than 10 µM.

On to `NC(=O)c1ccc(-c2ccnc(NCCCOc3ccc(Cl)cc3)n2)cc1` [4-(2-{[3-(4-chlorophenoxy)propyl]amino}pyrimidin-4-yl)benzamide], for which the IC50 is no more than 10 µM. Then `N#Cc1ccc(-c2nc(NCCNc3ccc([N+](=O)[O-])cn3)nc(-c3ccc(C#N)cc3)c2C(=O)O)cc1` [4,6-bis(4-cyanophenyl)-2-({2-[(5-nitro(2-pyridyl))amino]ethyl}-amino)pyrimidine-5-carboxylic acid], with no more than 1 µM. For `CCOC(=O)c1cnc(NCCNc2ccc([N+](=O)[O-])c(N)n2)nc1-c1ccc(Cl)cc1Cl` [ethyl 2-({2-[(6-amino-5-nitro(2-pyridyl))amino]ethyl}amino)-4-(2,4-dichlorophenyl)-pyrimidine-5-carboxylate], the IC50 was no more than 1 µM. Then `O=C(NCc1cccc(F)c1)c1ccc(-c2ccnc(NCCNc3ccc([N+](=O)[O-])cn3)n2)cc1` [N-[(3-fluorophenyl)methyl]{4-[2-({2-[(5-nitro(2-pyridyl))amino]ethyl}amino)pyrimidin-4-yl]-phenyl}carboxamide], with no more than 10 µM; and `COc1cccc(CNc2nccc(-c3ccc(C(N)=O)cc3)n2)c1` [4-(2-{[(3-methoxyphenyl)methyl]-amino}pyrimidin-4-yl)benzamide], with no more than 10 µM; and `O=[N+]([O-])c1ccc(NCCNc2nccc(NCc3ccccc3)n2)nc1` [[2-({2-[(5-nitro(2-pyridyl))amino]ethyl}amino)pyrimidin-4-yl]benzylamine], with no more than 10 µM. As to `COc1ccc(OC)c(CCNc2nccc(-c3ccc(C(N)=O)cc3)n2)c1` [4-(2-{[2-(2,5-dimethoxyphenyl)ethyl]amino}pyrimidin-4-yl)benzamide], the IC50 is no more than 1 µM.

Turning to `CCOC(=O)c1cnc(NCCNc2ccc([N+](=O)[O-])cn2)nc1-c1ccc(C)cc1` [ethyl 4-(4-methylphenyl)-2-({2-[(5-nitro(2-pyridyl))amino]ethyl}amino)pyrimidine-5-carboxylate], the IC50 was no more than 1 µM. Then `O=C(NCCc1ccc(Cl)cc1Cl)c1ccc(-c2ccnc(NCCNc3ccc([N+](=O)[O-])cn3)n2)cc1` [N-[2-(2,4-dichlorophenyl)ethyl]{4-[2-({2-[(5-nitro(2-pyridyl))amino]ethyl}-amino)pyrimidin-4-yl]phenyl}carboxamide], with no more than 10 µM. Then `O=C(NCc1cccc([N+](=O)[O-])c1)c1ccc(-c2ccnc(NCCNc3ccc([N+](=O)[O-])cn3)n2)cc1` [{4-[2-({2-[(5-nitro(2-pyridyl))amino]ethyl}amino)pyrimidin-4-yl]phenyl}-N-[(3-nitrophenyl)-methyl]carboxamide], with no more than 10 µM; and `O=[N+]([O-])c1ccc(NCCNc2ncc(-n3cnc4ccccc43)c(-c3ccc(Cl)cc3Cl)n2)nc1` [[5-benzimidazolyl-4-(2,4-dichlorophenyl)pyrimidin-2-yl]{2-[(5-nitro-(2-pyridyl))amino]ethyl}amine], with no more than 1 µM. Then `Fc1ccc(-c2ccnc(NCCNc3ccccn3)n2)cc1F` [[4-(3,4-difluorophenyl)pyrimidin-2-yl][2-(2-pyridylamino)-ethyl]amine], with no more than 10 µM; and `c1ccc(-c2ccnc(NCCNc3ccccn3)n2)cc1` [(4-phenylpyrimidin-2-yl)[2-(2-pyridylamino)ethyl]amine], with no more than 10 µM; and `CN(C)CCCOC(=O)c1cnc(NCCNc2ccc([N+](=O)[O-])cn2)nc1-c1ccc(C#N)cc1` [3-(dimethylamino)propyl 4-(4-cyanophenyl)-2-({2-[(5-nitro(2-pyridyl))amino]ethyl}amino)pyrimidine-5-carboxylate], with no more than 1 µM. In the case of `Nc1nc(NCCNc2ncc(-c3ncc[nH]3)c(-c3ccccc3Cl)n2)ccc1[N+](=O)[O-]` [{2-[(6-amino-5-nitro(2-pyridyl))amino]ethyl}[4-(2-chlorophenyl)-5-imidazol-2-ylpyrimidin-2-yl]amine], the IC50 was no more than 1 µM. As for `CCOC(=O)c1cnc(NCCNc2ccc([N+](=O)[O-])cn2)nc1-c1cc(C(F)(F)F)cc(C(F)(F)F)c1` [ethyl 4-[3,5-bis(trifluoromethyl)-phenyl]-2-({2-[(5-nitro(2-pyridyl))amino]ethyl}amino)pyrimidine-5-carboxylate], the figure is no more than 10 µM. Then `CCOC(=O)c1c(-c2ccc(C#N)cc2)nc(NCCNc2ccc([N+](=O)[O-])cn2)nc1-c1ccc([N+](=O)[O-])cc1` [ethyl 4-(4-cyanophenyl)-2-({2-[(5-nitro(2-pyridyl))amino]ethyl}amino)-6-(4-nitrophenyl)pyrimidine-5-carboxylate], with no more than 1 µM; and `COc1ccc(OC)c(CCNc2nccc(-c3ccc(C(=O)NCc4cccc(Br)c4)cc3)n2)c1` [[4-(2-{[2-(2,5-dimethoxyphenyl)ethyl]amino}pyrimidin-4-yl)phenyl]-N-[(3-bromophenyl)methyl]carboxamide], with no more than 10 µM. As for `N#Cc1ccc(-c2nc(NCCNc3ccc([N+](=O)[O-])cn3)ncc2C(N)=O)cc1` [4-(4-cyanophenyl)-2-({2-[(5-nitro(2-pyridyl))-amino]ethyl}amino)pyrimidine-5-carboxamide], the figure is no more than 1 µM; as for `N#Cc1ccc(NCCNc2ccc(-n3ccnc3)c(-c3ccc(Cl)cc3Cl)n2)nc1` [6-[(2-{[6-(2,4-dichlorophenyl)-5-imidazolyl-2-pyridyl]amino}ethyl)amino]pyridine-3-carbonitrile], no more than 1 µM; as for `O=C(NCc1cccnc1)c1ccc(-c2ccnc(NCCNc3ccc([N+](=O)[O-])cn3)n2)cc1` [{4-[2-({2-[(5-nitro(2-pyridyl))amino]ethyl}amino)pyrimidin-4-yl]phenyl}-N-(3-pyridylmethyl)carboxamide], no more than 10 µM. As for `NC(=O)c1ccc(-c2ccnc(NCCc3cccc(Cl)c3)n2)cc1`, the IC50 is no more than 10 µM. As for `Cc1c[nH]c(-c2cnc(NCCNc3ccc([N+](=O)[O-])c(N)n3)nc2-c2ccc(Cl)cc2Cl)n1` [{2-[(6-amino-5-nitro(2-pyridyl))amino]-ethyl}[4-(2,4-dichlorophenyl)-5-(4-methylimidazol-2-yl)pyrimidin-2-yl]amine], the figure is no more than 1 µM; as for `O=S(=O)(NCc1ccccc1)c1ccc(-c2ccnc(NCCNc3ccccn3)n2)cc1` [benzyl{[4-(2-{[2-(2-pyridylamino)ethyl]-amino}pyrimidin-4-yl)phenyl]sulfonyl}amine], no more than 10 µM; as for `NS(=O)(=O)c1ccc(-c2ccnc(NCCNc3ccc([N+](=O)[O-])cn3)n2)cc1` [4-[2-({2-[(5-nitro-2-pyridyl)amino]ethyl}amino)pyrimidin-4-yl]benzenesulfonamide], no more than 10 µM. As for `O=C(NCc1cccc(Br)c1)c1ccc(-c2ccnc(NCCCNc3ccc([N+](=O)[O-])cn3)n2)cc1` [N-[(3-bromophenyl)methyl]{4-[2-({3-[(5-nitro(2-pyridyl))-amino]propyl}amino)pyrimidin-4-yl]phenyl}carboxamide], the figure is no more than 10 µM. As for `O=[N+]([O-])c1ccc(NCCNc2ncc([N+](=O)[O-])c(-c3ccccc3)n2)nc1` [{2-[(5-nitro(2-pyridyl))amino]ethyl}(5-nitro-4-phenylpyrimidin-2-yl)amine], the figure is no more than 1 µM; as for `N#Cc1ccc(NCCNCc2ncc(-c3ncc[nH]3)c(-c3ccc(Cl)cc3Cl)n2)nc1` [6-[(2-{[4-(2,4-dichlorophenyl)-5-imidazol-2-ylpyrimidin-2-yl]methylamino}ethyl)amino]pyridine-3-carbonitrile], no more than 1 µM; as for `CN(C)CCCCOC(=O)c1cnc(NCCNc2ccc([N+](=O)[O-])cn2)nc1-c1ccc(C#N)cc1`, no more than 1 µM.

Consider `CCOC(=O)c1cnc(NCCNc2ccc([N+](=O)[O-])c(N)n2)nc1-c1ccc(-c2cnco2)cc1` [ethyl 2-({2-[(6-amino-5-nitro(2-pyridyl))amino]ethyl}amino)-4-(4-(1,3-oxazol-5-yl)phenyl)pyrimidine-5-carboxylate], for which the IC50 was no more than 1 µM. Then `Nc1nc(NCCNc2nccc(-c3ccc(C(=O)NCc4cccc(Br)c4)cc3)n2)ccc1[N+](=O)[O-]` [{4-[2-({2-[(6-amino-5-nitro(2-pyridyl))amino]ethyl}amino)pyrimidin-4-yl]phenyl}-N-[(3-bromophenyl)methyl]-carboxamide], with no more than 10 µM; and `COc1cc(CNc2nccc(-c3ccc(C(N)=O)cc3)n2)cc(OC)c1OC` [4-(2-{[(3,4,5-trimethoxyphenyl)methyl]amino}pyrimidin-4-yl)benzamide], with no more than 10 µM; and `Cc1cn(-c2cnc(NCCNc3ccc([N+](=O)[O-])cn3)nc2-c2ccc(Cl)cc2Cl)cn1` [[4-(2,4-dichlorophenyl)-5-(4-methylimidazolyl)pyrimidin-2-yl]{2-[(5-nitro(2-pyridyl))amino]ethyl}amine], with no more than 1 µM.

The record behind these values is patent US7425557B2, “Inhibitors of glycogen synthase kinase 3” (Novartis Vaccines and Diagnostics, Inc., priority 1998, dated 2008).
